Results as given in US8293768B2, “Organic compounds” (Novartis AG, priority 2006, dated 2012).

| Structure (SMILES) | melting point |
| --- | --- |
| Cc1nc(N2C(=O)CN(c3ccc(F)cc3)C2=O)sc1C(=O)NCc1ccccc1 [Example 2, N-benzyl-2-(3-(4-fluorophenyl)-2,5-dioxoimidazolidin-1-yl)-4-methylthiazole-5-carboxamide] | 217 to 219 °C |
| CCOC(=O)c1sc(N2CCNC2=O)nc1C [Example 3, ethyl 4-methyl-2-(2-oxoimidazolidin-1-yl)thiazole-5-carboxylate] | 197 to 199 °C |
| COC(=O)c1cnc(N2CCNC2=O)s1 [Example 3.1, methyl 2-(2-oxoimidazolidin-1-yl)thiazole-5-carboxylate] | 205 to 208 °C |
| CCOC(=O)c1sc(N2CCNC2=O)nc1C(F)(F)F [Example 3.2, ethyl 2-(2-oxoimidazolidin-1-yl)-4-(trifluoromethyl)thiazole-5-carboxylate] | 185 to 187 °C |
| CCOC(=O)c1sc(N2CCN(Cc3ccccc3)C2=O)nc1C [Example 5, ethyl 2-(3-benzyl-2-oxoimidazolidin-1-yl)-4-methylthiazole-5-carboxylate] | 122 to 124 °C |
| CCOC(=O)c1sc(N2CCN(Cc3ccc(C(F)(F)F)cc3)C2=O)nc1C [Example 5.2, ethyl 4-methyl-2-(2-oxo-3-(4-(trifluoromethyl)benzyl)imidazolidin-1-yl)thiazole-5-carboxylate] | 126 to 127 °C |
| CC(=O)c1sc(N2CCN(Cc3ccc(C(F)(F)F)cc3)C2=O)nc1C [Example 5.10, 1-(5-acetyl-4-methylthiazol-2-yl)-3-(4-(trifluoromethyl)benzyl)imidazolidin-2-one] | 141 to 142 °C |
| COC(=O)c1ccc(CN2CCN(c3nc(C)c(C(C)=O)s3)C2=O)cc1 [Example 5.11, methyl 4-((3-(5-acetyl-4-methylthiazol-2-yl)-2-oxoimidazolidin-1-yl)methyl)benzoate] | 174 to 175 °C |
| COC(=O)c1ccc(CN2CCN(c3nc(C)cs3)C2=O)cc1 [Example 5.13, methyl 4-((3-(4-methylthiazol-2-yl)-2-oxoimidazolidin-1-yl)methyl)benzoate] | 157 to 158 °C |
| Cc1csc(N2CCN(Cc3ccc(C(F)(F)F)cc3)C2=O)n1 [Example 5.14, 1-(4-methylthiazol-2-yl)-3-(4-(trifluoromethyl)benzyl)imidazolidin-2-one] | 102 to 103 °C |
| COC(=O)c1cccc(CN2CCN(c3nc(C)c(C(C)=O)s3)C2=O)c1 [Example 5.17, methyl 3-((3-(5-acetyl-4-methylthiazol-2-yl)-2-oxoimidazolidin-1-yl)methyl)benzoate] | 122 to 124 °C |
| Cc1nc(N2CCN(c3ccccc3)C2=O)sc1C(=O)O [Example 6, 4-methyl-2-(2-oxo-3-phenylimidazolidin-1-yl)thiazole-5-carboxylic acid] | 286 to 289 °C |
| Cc1nc(N2CCN(Cc3ccccc3)C2=O)sc1C(=O)O [Example 6.2, 2-(3-benzyl-2-oxoimidazolidin-1-yl)-4-methylthiazole-5-carboxylic acid] | 248 to 249 °C |
| Cc1nc(N2CCN(Cc3ccc(C(F)(F)F)cc3)C2=O)sc1C(=O)O [Example 6.5, 4-methyl-2-(2-oxo-3-(4-(trifluoromethyl)benzyl)imidazolidin-1-yl)thiazole-5-carboxylic acid] | 195 to 197 °C |
| Cc1nc(N2CCN(CCCc3ccccc3)C2=O)sc1C(=O)O [Example 6.12, 4-methyl-2-(2-oxo-3-(3-phenylpropyl)imidazolidin-1-yl)thiazole-5-carboxylic acid] | 218 to 221 °C |
| Cc1csc(N2CCN(Cc3ccc(C(=O)O)cc3)C2=O)n1 [Example 6.23, 4-((3-(4-methylthiazol-2-yl)-2-oxoimidazolidin-1-yl)methyl)benzoic acid] | 222 to 224 °C |
| Cc1nc(N2CCN(c3ccccc3)C2=O)sc1C(=O)NCc1ccccc1 [Example 7, N-benzyl-4-methyl-2-(2-oxo-3-phenylimidazolidin-1-yl)thiazole-5-carboxamide] | 234 to 236 °C |
| Cc1nc(N2CCN(Cc3ccccc3)C2=O)sc1C(=O)NCc1ccccc1 [Example 8, N-benzyl-2-(3-benzyl-2-oxoimidazolidin-1-yl)-4-methylthiazole-5-carboxamide] | 169 to 171 °C |
| Cc1nc(N2CCN(Cc3ccccc3)C2=O)sc1C(=O)NCc1cccc(F)c1 [Example 8.1, 2-(3-benzyl-2-oxoimidazolidin-1-yl)-N-(3-fluorobenzyl)-4-methylthiazole-5-carboxamide] | 169 to 171 °C |
| CCNC(=O)c1sc(N2CCN(Cc3ccc(OC(F)(F)F)cc3)C2=O)nc1C [Example 8.2, N-ethyl-4-methyl-2-(2-oxo-3-(4-(trifluoromethoxy)benzyl)imidazolidin-1-yl)thiazole-5-carboxamide] | 218 to 219 °C |

| Structure (SMILES) | melting point |
| --- | --- |
| Cc1nc(N2CCN(Cc3ccc(OC(F)(F)F)cc3)C2=O)sc1C(=O)NCCC1CC1 [Example 8.3, N-(2-cyclopropylethyl)-4-methyl-2-(2-oxo-3-(4-(trifluoromethoxy)benzyl)imidazolidin-1-yl)thiazole-5-carboxamide] | 195 to 196 °C |
| Cc1nc(N2CCN(Cc3ccc(F)cc3)C2=O)sc1C(=O)NCCN1CCCC1 [Example 8.4, 2-(3-(4-fluorobenzyl)-2-oxoimidazolidin-1-yl)-4-methyl-N-(2-(pyrrolidin-1-yl)ethyl)thiazole-5-carboxamide] | 183 to 184 °C |
| CNC(=O)c1ccc(CN2CCN(c3nc(C)c(C(C)=O)s3)C2=O)cc1 [Example 8.6, 4-((3-(5-acetyl-4-methylthiazol-2-yl)-2-oxoimidazolidin-1-yl)methyl)-N-methylbenzamide] | 173 to 175 °C |
| Cc1csc(N2CCN(Cc3ccc(C(=O)Nc4ccc(F)cc4)cc3)C2=O)n1 [Example 8.7, N-(4-fluorophenyl)-4-((3-(4-methylthiazol-2-yl)-2-oxoimidazolidin-1-yl)methyl)benzamide] | 206 to 207 °C |
| Cc1csc(N2CCN(Cc3ccc(C(=O)n4nccc4C)cc3)C2=O)n1 [Example 8.8, 1-(4-(5-methyl-1H-pyrazole-1-carbonyl)benzyl)-3-(4-methylthiazol-2-yl)imidazolidin-2-one] | 96 to 97 °C |
| Cc1csc(N2CCN(Cc3ccc(C(=O)NCc4ccccc4)cc3)C2=O)n1 [Example 8.9, N-benzyl-4-((3-(4-methylthiazol-2-yl)-2-oxoimidazolidin-1-yl)methyl)benzamide] | 185 to 186 °C |
| Cc1csc(NC(=O)c2ccc(CN3CCN(c4nc(C)cs4)C3=O)cc2)n1 [Example 8.10, N-(4-methylthiazol-2-yl)-4-((3-(4-methylthiazol-2-yl)-2-oxoimidazolidin-1-yl)methyl)benzamide] | 197 to 198 °C |
| Cc1nc(N2CCN(Cc3ccc(OC(F)(F)F)cc3)C2=O)sc1C(=O)NCC1CC1 [Example 8.12, N-(cyclopropylmethyl)-4-methyl-2-(2-oxo-3-(4-(trifluoromethoxy)benzyl)imidazolidin-1-yl)thiazole-5-carboxamide] | 184 to 186 °C |
| Cc1nc(N2CCN(Cc3ccccc3)C2=O)sc1C(=O)NCc1ccc(F)cc1 [Example 9, 2-(3-benzyl-2-oxoimidazolidin-1-yl)-N-(4-fluorobenzyl)-4-methylthiazole-5-carboxamide] | 147 to 148 °C |
| Cc1nc(N2CCN(Cc3ccccc3)C2=O)sc1C(=O)NCc1ccccc1F [Example 9.1, 2-(3-benzyl-2-oxoimidazolidin-1-yl)-N-(2-fluorobenzyl)-4-methylthiazole-5-carboxamide] | 167 to 168 °C |
| Cc1nc(N2CCN(Cc3ccccc3)C2=O)sc1C(=O)NCc1cc(F)ccc1F [Example 9.2, 2-(3-benzyl-2-oxoimidazolidin-1-yl)-N-(2,5-difluorobenzyl)-4-methylthiazole-5-carboxamide] | 176 to 177 °C |
| Cc1nc(N2CCN(Cc3ccccc3)C2=O)sc1C(=O)NCc1cc(F)cc(F)c1 [Example 9.3, 2-(3-benzyl-2-oxoimidazolidin-1-yl)-N-(3,5-difluorobenzyl)-4-methylthiazole-5-carboxamide] | 208 to 209 °C |
| Cc1nc(N2CCN(Cc3ccccc3)C2=O)sc1C(=O)NCc1ccc(F)cc1F [Example 9.4, 2-(3-benzyl-2-oxoimidazolidin-1-yl)-N-(2,4-difluorobenzyl)-4-methylthiazole-5-carboxamide] | 157 to 158 °C |
| Cc1nc(N2CCN(Cc3ccccc3)C2=O)sc1C(=O)NCc1ccc(F)c(F)c1 [Example 9.5, 2-(3-benzyl-2-oxoimidazolidin-1-yl)-N-(3,4-difluorobenzyl)-4-methylthiazole-5-carboxamide] | 152 to 153 °C |
| Cc1nc(N2CCN(Cc3ccccc3)C2=O)sc1C(=O)NCc1cccc(Cl)c1 [Example 9.6, 2-(3-benzyl-2-oxoimidazolidin-1-yl)-N-(3-chlorobenzyl)-4-methylthiazole-5-carboxamide] | 178 to 179 °C |
| Cc1nc(N2CCN(Cc3ccccc3)C2=O)sc1C(=O)NCc1cccnc1 [Example 9.7, 2-(3-benzyl-2-oxoimidazolidin-1-yl)-4-methyl-N-(pyridin-3-ylmethyl)thiazole-5-carboxamide] | 153 to 154 °C |
| Cc1nc(N2CCN(Cc3ccccc3)C2=O)sc1C(=O)NCc1ccncc1 [Example 9.9, 2-(3-benzyl-2-oxoimidazolidin-1-yl)-4-methyl-N-(pyridin-4-ylmethyl)thiazole-5-carboxamide] | 96 to 97 °C |
| Cc1ccc(CNC(=O)c2sc(N3CCN(Cc4ccccc4)C3=O)nc2C)o1 [Example 9.10, 2-(3-benzyl-2-oxoimidazolidin-1-yl)-4-methyl-N-((5-methylfuran-2-yl)methyl)thiazole-5-carboxamide] | 138 to 139 °C |
| Cc1nc(N2CCN(CCc3ccccc3)C2=O)sc1C(=O)NCc1ccccc1 [Example 9.11, N-benzyl-4-methyl-2-(2-oxo-3-phenethylimidazolidin-1-yl)thiazole-5-carboxamide] | 156 to 157 °C |
| Cc1nc(N2CCN(Cc3ccc(C(F)(F)F)cc3)C2=O)sc1C(=O)NCc1cccnc1 [Example 9.12, 4-methyl-2-(2-oxo-3-(4-(trifluoromethyl)benzyl)imidazolidin-1-yl)-N-(pyridin-3-ylmethyl)thiazole-5-carboxamide] | 107 to 108 °C |
